Assays:
MOLM-13 cells = experiment: Annexin V / Propidium Iodide flow cytometry apoptosis assay in MOLM-13; type: cell-based; design: key to Excess over HSA / Excess over BLISS: excess = combination minus HSA/Bliss expected, in % apoptotic cells; conditions: for Excess over BLISS / Excess over HSA: imetelstat sodium μM: r7 50, r8 25, r9 10, r10 0
Protocol: AML tumor cells KG-1 (ATCC #CCL-246) and MOLM-13 (DSMZ #ACC554) were plated at a density of ˜20,000 cells per well on 96-well polystyrene U-bottom tissue culture plates (Corning catalog #353777) in RPMI-1640 (ThermoFisher catalog #11875-085) supplemented with 10% fetal bovine serum (ThermoFisher catalog #16140-089) and 1% penicillin/streptomycin antibiotic cocktail (ThermoFisher catalog 15140-122) and grown in a 37° C. incubator under humidified 5% CO2 atmosphere.
At 48 and 96 hours, cells were measured for healthy, early apoptotic and apoptotic populations with an Annexin V (interior cell membrane stain) plus Propidium Iodide (PI, DNA binding dye) flow cytometry assay kit (BioLegend catalog 640914). Annexin V detects the externalization of phosphatidylserine in apoptotic cells using recombinant annexin V conjugated to green-fluorescent FITC dye and dead cells using Propidium iodide (PI). Propidium iodide stains necrotic cells with red fluorescence. After treatment with both probes, early apoptotic cells show green fluorescence, apoptotic (dead) cells show red and green fluorescence, and live cells show little or no fluorescence. […] Cells were stained for 30 minutes at 4° C. in the dark, followed by 3× washes with PBS and suspension in FACs Stain Buffer (BD catalog 554657) prior to interrogation on a BD FACs Canto flow cytometer for forward scatter, side scatter, FITC, and PE channels. […] The percentage of apoptotic cells (double labeled) was used to calculate combination effects using both the Highest Single Agent (HSA) and Bliss additivity models (J Tang et al. Frontiers in Pharmacology. 2015; 6 (181)).
Using the HSA model, the cytotoxic effect of the combined condition (“C”) was compared to the effect generated by each of the single agent controls (“A” or “B”) for the respective dose in the combination: Excess over HSA=C−A (if A>B) or C−B (if A<B)
The Bliss model performs a similar comparison, but instead of the highest effect of single agent, the Bliss model subtracts from the combination a value equal to the sum of each single agent minus their product: Excess over Bliss=C−[(A+B)−(A*B)]
Treated cells were analyzed by Flow cytometry for Annexin V and Propidium Iodide staining as described previously. Events gated in the apoptotic population (Annexin V+/Propidium Iodide+) were used to determine synergy scores for the combination matrix. Combination data analysis was generated by the Horizon Chalice™ Analyzer Software (Horizon Discovery Group, Cambridge, UK). […] Mismatch and non-complimentary controls were not utilized in this experiment.
Combination conditions undergo isobolar analysis to generate a combination index and graphically represent the behavior of a combination with synergistic pairs falling below the isobologram and antagonistic falling above it (additive combinations would be expected to fall on the line). The Horizon Chalice™ Analyzer Software additionally provides a synergy score, with values greater than 1 indicating synergy.

hTERT = hTERT transcription levels by RT-qPCR in KG-1; type: cell-based, human; conditions: 20 nM ABT-199, at either time point (48 or 96 hours)
Protocol: Samples from cell experiments (and single agent controls) were collected for molecular analyses to assess combination effects contributing to potential mechanisms of action. […] Nucleic acids were purified by first lysing cells with 350 μL of RLT Buffer (Qiagen catalog #1030963) supplemented with 2-mercaptoethanol (Sigma catalog #63689-100ML-F). RNA was purified with the AllPrep RNA/DNA Mini Kit (Qiagen catalog #80204) and reverse transcribed to cDNA using a High Capacity cDNA kit (ThermoFisher catalog #4368814) and pre-amplified prior to analysis with TaqMan PreAmp Master Mix (ThermoFisher catalog #4384557B). Products were analyzed using an in-house developed Taq-Man RT-qPCR assay to measure hTERT transcription levels (TaqMan Universal PCR Master Mix—ThermoFisher catalog #4304437; primer and probe sequences below) using a ViiA7 Real-Time PCR system from ThermoFisher: […]

telomerase = telomerase activity by qPCR TRAP in KG-1 lysates; type: cell-based, human; conditions: 50 μM imetelstat sodium or 20 nM ABT-199
Protocol: Samples from the previous section for protein analysis were collected as cell pellets by centrifugation at 5 minutes for 1500K for lyses and protein extraction. Protein lysates were analyzed by utilizing a modified method combined from two primary sources (Hou, et al. (2001) 43(3) 519-524 and Nature Protocols (2006) 1 (3) 1583-1590). Lysates were generated by adding 80 μL of a 10 mM Tris-EDTA, 1% NP-40, 10% Glycerol, 150 mM NaCl, 1 mM MgCl2, 250 μM Sodium Deoxycholate, 100 μM AEBSF, 5 mM 2-mercaptoethanol buffer and incubating on ice for 30 minutes. Lysates were centrifuged for 15 minutes at max speed and at 4° C. to pellet cellular debris. Protein yield from clarified lysates were quantified using a BCA assay (ThermoFisher catalog 23252) and subjected to a qPCR TRAP-based assay to determine relative telomerase activity (Power SYBR Green PCR Master Mix—ThermoFisher #4367659) using a ViiA7 Real-Time PCR system from ThermoFisher. In this assay, protein lysates are exposed to synthetic oligonucleotides mimicking telomere sequences in the presence of excess dNTPs and SYBR green dye. The greater the activity of telomerase, the greater extension of the synthetic primers, and therefore greater staining of nucleic acid and signal generated by the SYBR dye. This signal is compared to a standard curve of control protein lysate to determine the relative telomerase activity between samples.

[1] = MOLM-13, 48 hours, ABT-199 1 nM
[2] = MOLM-13, 48 hours, ABT-199 5 nM
[3] = MOLM-13, 48 hours, ABT-199 20 nM
[4] = MOLM-13, 48 hours, ABT-199 100 nM
[5] = MOLM-13, 48 hours, ABT-199 500 nM
[6] = MOLM-13, 96 hours, ABT-199 1 nM
[7] = MOLM-13, 96 hours, ABT-199 5 nM
[8] = MOLM-13, 96 hours, ABT-199 20 nM
[9] = MOLM-13, 96 hours, ABT-199 100 nM
[10] = MOLM-13, 96 hours, ABT-199 500 nM

## CC1(C)CCC(CN2CCN(c3ccc(C(=O)NS(=O)(=O)c4ccc(NCC5CCOCC5)c([N+](=O)[O-])c4)c(Oc4cnc5[nH]ccc5c4)c3)CC2)=C(c2ccc(Cl)cc2)C1 [ABT-199, 4-[4-[[2-(4-chlorophenyl)-4,4-dimethylcyclohexen-1-yl]methyl]piperazin-1-yl]-N-[3-nitro-4-(oxan-4-ylmethylamino)phenyl]sulfonyl-2-(1H-pyrrolo [2,3-b]pyridin-5-yloxy)benzamide]
MOLM-13 cells; [1]
  Excess over BLISS: 0
  Excess over HSA: 0
MOLM-13 cells; [2]
  Excess over BLISS: 0
  Excess over HSA: 0
MOLM-13 cells; [3]
  Excess over BLISS: 0
  Excess over HSA: 0
MOLM-13 cells; [4]
  % apoptotic cells (double label): ~19%
  Excess over BLISS: 0
  Excess over HSA: 0
MOLM-13 cells; [5]
  % apoptotic cells (double label): ~30%
  Excess over BLISS: 0
  Excess over HSA: 0
MOLM-13 cells; [6]
  Excess over BLISS: 0
  Excess over HSA: 0
MOLM-13 cells; [7]
  Excess over BLISS: 0
  Excess over HSA: 0
MOLM-13 cells; [8]
  Excess over BLISS: 0
  Excess over HSA: 0
MOLM-13 cells; [9]
  Excess over BLISS: 0
  Excess over HSA: 0
MOLM-13 cells; [10]
  Excess over BLISS: 0
  Excess over HSA: 0
MOLM-13 cells; MOLM-13, 96 hours, ABT-199 at 5, 20, 100 and 500 nM
  cell death: > 30%
MOLM-13 cells; MOLM-13, after 48 hours, concentrations not given
  apoptotic activity: 30%
hTERT
  hTERT RNA expression level, percentage of untreated controls: 90-95%
telomerase; KG-1, 48 hours
  telomerase activity as compared to control: no effect
telomerase; KG-1, 96 hours
  telomerase activity as compared to control: ~80%
